Data set [1] has as its system PBMCs. The data set can be described thus: Cell mitosis assay in PBMCs. Format: cell-based. As to conditions: Homo sapiens, PBMC, 5 μg/mL. An outline of the steps:
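Human PBMCs from healthy donors, density-gradient isolated, stimulated with 2% PHA 48 h, then exposed 20 h to test compounds; demecolcine 0.1 μg/mL added 2 h before harvest. Fixed/permeabilised cells stained for phospho-histone H3 and propidium iodide; mitotic lymphocytes counted by flow cytometry.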

The subject of data set [2] is HT29 cells. The data set can be described thus: IL-1β-induced IL-8 release in HT29 cells. Format: cell-based. As to conditions: Homo sapiens, HT-29, assay (d), read-out: IC50 Values for Inhibition of Cytokine Release HT29 cells IL-8. The method, then: HT29 cells, a human colon adenocarcinoma cell line, are plated in a 96 well plate (24 hr) and pre-treated with compounds at the desired concentration for 2 hours before addition of 5 ng/mL of IL-1β (Abcam) for 24 hours. Supernatants are harvested for IL-8 quantification by Sandwich ELISA (Duo-set, R&D System). The IC50 is determined from the dose response curve.

Data set [3] relates to PBMCs. The data set can be described thus: IL-2 and IFN gamma release in CD3/CD28 stimulated PBMC cells. As to conditions: Homo sapiens, assay (c). It is filed as cell-based. Summed up: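 Healthy-donor PBMCs, density-gradient isolated, stimulated on plates pre-coated with anti-CD3 (0.3 μg/mL) and anti-CD28 (3 μg/mL) antibodies, with compound, for 3 days under standard culture conditions. IC50 derived from the dose-response curve.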

Data set [4] concerns BDF1 mice. The data set can be described thus: TNBS-induced colitis in mice. Format: in vivo. As to conditions: conducted over 2 days; vehicle corn oil/transcutol/maisine/cremophor ELP. The method, then:
Non-fasted, 10-12 week old, male BDF1 mice are dosed by oral gavage twice daily with either vehicle (5 mL/kg), reference item (Budesonide 2.5 mg/kg) or test compound (1 or 5 mg/kg) one day before (Day −1) stimulation of the inflammatory response by treatment with 2,4,6-trinitrobenzenesulphonic acid (TNBS) (15 mg/mL in 50% ethanol/50% saline). On Day 0 of the study TNBS (200 μL) is administered intra-colonically via a plastic catheter with BID dosing of the vehicle, reference or test compound continuing for 2 or 4 days. During the study, animals are weighed every day and stool observations are made and recorded as a score, based on stool consistency. At the time of sacrifice on Day 2 (or Day 4), the large intestine is removed and the length and weight recorded. Sections of the colon are taken for histopathology scoring to determine disease severity.

Data set [5] relates to PBMCs. The data set can be described thus: LPS-induced TNFα/IL-8 release in PBMC cells. It is filed as cell-based. As to conditions: Homo sapiens, assay (b), read-out: IC50 Values for Inhibition of Cytokine Release PBMCs IL-8. Summed up:
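Healthy-donor PBMCs isolated by density gradient were pretreated with compound for 2 h, then stimulated with 1 ng/mL LPS (E. coli 0111:B4) for 24 h at 37° C., 5% CO2. IL-8 and TNFα in supernatants measured by sandwich ELISA.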

The nature of data set [6]: Hydrolytic stability study (DMSO/water 3:1, 60° C.). Format: physicochemical. The method, then:
Chemical stability of compounds of the invention was assessed in a mixture of DMSO and water (3:1) at a test compound concentration of 1 mg/mL
Agilent, Waters X-Select C18, 2.5 μm, 4.6×30 mm column, 4 min method, 5-95%
MeCN/water (0.1% formic acid).
Column Oven Temperature 40° C.
Sample Preparation • A 1.0 mg sample of test compound was dissolved in 750 μL of DMSO. Water (250 μL) was added slowly, ensuring no precipitation occurred.
Recording Stability • A 50 μL aliquot of the test solution was removed and analysed in duplicate by 5 μL HPLC injections. The peak area for the test compound was recorded following manual integration of the corresponding UV trace. • The test solution was heated to 60° C., with stirring, and 50 μL aliquots removed for HPLC analysis at 5 and 24 h timepoints.

The test system of data set [7] is Lewis rats. The data set can be described thus: Endotoxin-induced uveitis in rats. Format: in vivo. As to conditions: rats treated with intravitreal endotoxin LPS. The method, then:
Male, Lewis rats (6-8 weeks old, Charles River UK Limited) are housed in cages of 3 at 19-21° C. with a 12 h light/dark cycle (07:00/19:00) and fed a standard diet of rodent chow and water ad libitum. Non-fasted rats are weighed, individually identified on the tail with a permanent marker, and receive a single intravitreal administration into the right vitreous humor (5 μL dose volume) of 100 ng/animal of LPS (Escherichia coli 0111:B4 prepared in PBS, Sigma Aldrich, UK) using a 32-gauge needle. Untreated rats are injected with PBS. Test compound, dexamethasone (Dex) or vehicle (20% hydroxypropyl-β-cyclodextrin, 0.1% HPMC, 0.01% Benzalkonium chloride, 0.05% EDTA, 0.7% NaCl in deionised water) are administered by the topical route onto the right eye (10 μL) of animals 30 minutes prior to LPS, at the time of LPS administration, and 1, 2 and 4 hours post LPS administration. Before administration, the solution or suspension to be administered is agitated for 5 minutes to ensure a uniform suspension. 6 hours after LPS dosing, animals are euthanized by overdose with pentobarbitone (i.v.). Following euthanasia, the right eye of each animal is enucleated and dissected into front (anterior) and back (posterior) sections around the lens. Each section is weighed and homogenised in 500 μL of sterile phosphate buffered saline followed by 20 minutes centrifugation at 12000 rpm at 4° C. The resulting supernatant is divided into 3 aliquots and stored at −80° C. until subsequent cytokine analysis by R&D DuoSet ELISA.

The nature of data set [8]: Plasma pharmacokinetics and total colon tissue distribution in mice, single oral administration. Format: in vivo, C57BL/6 mice. As to conditions: male, C57BL/6, mouse, 5 mg/kg, read-out: Median plasma concentration. The method, then: (§1) Studies were conducted by Sai Life Sciences (Hinjewadi, Pune, India) to investigate the plasma pharmacokinetics and total colon tissue distribution of compounds of the invention. In particular, pharmacokinetic studies were carried out in: • male C57BL/6 mice, following a single oral administration; and • male Wistar rats following a single intravenous or oral administration.

A short description of data set [9]: Plasma pharmacokinetics in rats, single intravenous or oral administration. Format: in vivo. As to conditions: male, Wistar, rat. The method, then:
as §1

The subject of data set [10] is SCID animals. Kind of data set: Adoptive transfer in mice (CD45RBhigh cells into SCID animals). Format: in vivo. As to conditions: end of the study. The method, then:
On Study day 0, female Balb/C mice are terminated and spleens obtained for CD45RB^high cell isolation (Using SCID IBD cell Separation protocol). Approximately 4×10^5 cells/mL CD45RB^high cells are then injected intraperitoneally (100 μL/mouse) into female SCID animals. On study day 14, mice are weighed and randomized into treatment groups based on body weight. On Day 14, compounds are administered BID, via oral gavage, in a peanut oil vehicle at the dose levels outlined below in Tables 6a and 6b and a dose volume of 5 mL/kg. Treatment continues until study day 42, at which point the animals are necropsied 4 hours after the morning administration. The colon length and weight are recorded and used as a secondary endpoint in the study as a measurement of colon oedema. The colon is then divided into six cross-sections, four of which are used for histopathology scoring (primary endpoint) and two are homogenised for cytokine analysis. Data shown is the % inhibition of the induction window between naïve animals and vehicle animals, where higher inhibition implies closer to the non-diseased, naïve, phenotype.

Data set [11] deals with d-U937 cells. Kind of data set: LPS-induced TNFα/IL-8 release in d-U937 cells. As to conditions: Homo sapiens, dU937, assay (aa). It is filed as cell-based. The method, then: U937 cells, a human monocytic cell line, are differentiated to macrophage-type cells by incubation with phorbol myristate acetate (PMA; 100 ng/mL) for 48 to 72 hr. Cells are pre-incubated with final concentrations of test compound for 2 hr and are then stimulated with 0.1 μg/mL of LPS (from E. Coli: 0111:B4, Sigma) for 4 hr. The supernatant is collected for determination of TNFα and IL-8 concentrations by sandwich ELISA (Duo-set, R&D systems). […] The relative 50% effective concentration (REC50) is determined from the resultant concentration-response curve. The inhibition of IL-8 production is calculated at each concentration of test compound by comparison with vehicle control.

The mark [12] stands for this setting: read-out: IC50 Values for Inhibition of Cytokine Release PBMCs IFNγ.
Where [13] appears, read: read-out: IC50 Values for Inhibition of Cytokine Release PBMCs IL-2.
[14] abbreviates: po, 5 mg/kg, read-out: Median plasma concentration.

Each structure is given as a SMILES string. Where two headings read alike, the source gives them in different places.

In general, inhibition refers to the percentage by which the read-out fell short of the control. The low end stands for little suppression, the high end for strong suppression. For orientation: IC50 means the midpoint of a concentration-inhibition curve.

Turning to `COCCOCCOCCOc1cc(Nc2cc(Oc3ccc(NC(=O)Nc4cc(C(C)(C)C)cc(C(N)=O)c4OC)c4ccccc34)ccn2)cc(OC)c1` [Example 34, 5-(tert-Butyl)-2-methoxy-3-(3-(4-((2-((3-methoxy-5-(2-(2-(2-methoxyethoxy)ethoxy)ethoxy)phenyl)amino)pyridin-4-yl)oxy)naphthalen-1-yl)ureido)benzamide], at 5 µg/mL the inhibition in data set [1] was 40.4%. For the same molecule, the half-maximal inhibitory concentration (IC50) came to 2.1 nM in [2], 7.6 nM in [3] (setting [12]), 62.5 nM in data set [3] (setting [13]) and 3 nM in data set [5]. Besides, in data set [4], the “activity in TNBS-induced colitis (histopathology analysis)” value (from here on “activity … (histopathology analysis)”) is reported as “displayed substantial activity”.
Regarding `C#Cc1cc(Nc2nccc(Oc3ccc(NC(=O)Nc4cc(C(C)C)nn4-c4ccc(C)cc4)c4ccccc34)n2)cc(C(=O)NCCN2CCOCC2)c1` [Reference Compound B, 3-ethynyl-5-((4-((4-(3-(3-isopropyl-1-(p-tolyl)-1H-pyrazol-5-yl)ureido)naphthalen-1-yl)oxy)pyrimidin-2-yl)amino)-N-(2-morpholinoethyl)benzamide, reference compound], the “decomposition in hydrolytic stability study” value in [6] (1 mg/mL in DMSO:water (3:1), 60° C., 5 and 24 h) is reported as “underwent substantial decomposition”. Also, the “% Parent Remaining” value is reported as 100% in data set [6] (DMSO/water 3:1, 0 min); 82% in data set [6] (DMSO/water 3:1, 60° C., 300 min); 36% in [6] (DMSO/water 3:1, 60° C., 1440 min).
`COc1cc(Nc2cc(Oc3ccc(NC(=O)Nc4cc(C(C)(C)C)cc(NS(C)(=O)=O)c4OC)c4ccccc34)ccn2)cc(C(=O)NCCCN2CCOCC2)c1` [Example 66, 3-((4-((4-(3-(5-(tert-Butyl)-2-methoxy-3-(methylsulfonamido)phenyl)ureido)naphthalen-1-yl)oxy)pyridin-2-yl)amino)-5-methoxy-N-(3-morpholinopropyl)benzamide] came in with an inhibition at 5 µg/mL in [1] of 66.6%. The IC50 in data set [2] was 16.4 nM; in data set [3] (setting [12]) it was 20.2 nM; in data set [3] (setting [13]) it was 49.2 nM; in data set [5], 1.9 nM. Besides, the “cytokine levels in the anterior and posterior segments of the eyes” value in data set [7] was “significantly reduced”.
Consider `COCCOCCOCCNC(=O)c1cc(Nc2cc(Oc3ccc(NC(=O)Nc4cc(C(C)(C)C)cc(NS(C)(=O)=O)c4OC)c4ccccc34)ccn2)cc(OC)c1` [Example 3, 3-((4-((4-(3-(5-(tert-Butyl)-2-methoxy-3-(methylsulfonamido)phenyl)ureido)naphthalen-1-yl)oxy)pyridin-2-yl)amino)-5-methoxy-N-(2-(2-(2-methoxyethoxy)ethoxy)ethyl)benzamide], for which at 5 µg/mL the inhibition in data set [1] was 31.7%. In addition, in data set [2], the IC50 turned out to be 8.1 nM. For the same molecule, the concentration for half-maximal inhibition (IC50) in data set [3] (setting [12]) came out at 9.6 nM. For the same molecule, the IC50 in [3] (setting [13]) stood at 190 nM. In addition, the “activity … (histopathology analysis)” value in data set [4] was “displayed substantial activity”. Moreover, in data set [8], the concentration at 1 h was 0 ng/mL, the concentration at 2 h came out at 0 ng/mL, the concentration at 4 h was 0 ng/mL and the concentration at 8 h worked out at 0 ng/mL. For the same molecule, in data set [8], the concentration at 12 h is 0 ng/mL and the concentration at 24 h was found to be 0 ng/mL. Moreover, in [9] (setting [14]), the concentration at 0.5 h worked out at 0 ng/mL, the concentration at 1 h stood at 0 ng/mL, the concentration at 2 h worked out at 0 ng/mL and the concentration at 4 h came to 0 ng/mL. For the same molecule, in data set [9] (setting [14]), the concentration at 6 h was found to be 0 ng/mL, the concentration at 8 h is 0 ng/mL, the concentration at 12 h was found to be 0 ng/mL and the concentration at 24 h is 0 ng/mL. Besides, in [9] (rats, intravenous 0.25 mg/kg), the clearance was 5.1 mL/min/kg. For the same molecule, in data set [10], the “activity in adoptive transfer model (ratios of colon weight to length)” value is “displayed significant activity”. Besides, the IC50 in [11] (method: relative to 10 μg/mL BIRB796 (REC50), read-out: IC50 Values for Inhibition of Cytokine Release dU937 cells TNFα) was 0.4 nM. Also, in data set [11] (read-out: IC50 Values for Inhibition of Cytokine Release dU937 cells IL-8), the IC50 is 1.3 nM. Moreover, the IC50 in [5] amounted to 1.2 nM.
As to `COc1cc(Nc2cc(Oc3ccc(NC(=O)Nc4cc(C(C)(C)C)cc(NS(C)(=O)=O)c4OC)c4ccccc34)ccn2)cc(C(=O)NCCN2CCN(C)CC2)c1` [Example 79, 3-((4-((4-(3-(5-(tert-Butyl)-2-methoxy-3-(methylsulfonamido)phenyl)ureido)naphthalen-1-yl)oxy)pyridin-2-yl)amino)-5-methoxy-N-(2-(4-methylpiperazin-1-yl)ethyl)benzamide], the inhibition at 5 µg/mL in data set [1] was determined as 54.4%. Also, the IC50 in data set [2] was 13.1 nM; in [3] (setting [12]) it was 5.9 nM; in [3] (setting [13]), 284 nM; in data set [5], 3.4 nM. Also, in data set [4], the “activity … (histopathology analysis)” value was “displayed substantial activity”.
